# In ChEMBL document CHEMBL4330150, “Synthesis and biological evaluation of pyrazole linked benzothiazole-β-naphthol derivatives as topoisomerase I inhibitors with DNA binding ability” (Bioorg Med Chem, 2019):
# Tested on: A549
# Assay: Antiproliferative activity against human A549 cells after 48 hrs by MTT assay
# Assay type: functional, cell-based
# Settings: A549, 48 h
row,Compound,IC50 [µM]
1,COc1ccc(-c2nn(-c3ccccc3)cc2C(Nc2nc3ccc(OC)cc3s2)c2c(O)ccc3ccccc23)cc1 (stereo not drawn),28.1
2,O=[N+]([O-])c1ccc(-c2nn(-c3ccccc3)cc2C(Nc2nc3ccc(Cl)cc3s2)c2c(O)ccc3ccccc23)cc1 (stereo not drawn),57.2
3,COc1ccc(-c2nn(-c3ccccc3)cc2C(Nc2nc3ccccc3s2)c2c(O)ccc3ccccc23)cc1 (stereo not drawn),26.2
4,COc1ccc2nc(NC(c3cn(-c4ccccc4)nc3-c3cccc(I)c3)c3c(O)ccc4ccccc34)sc2c1 (stereo not drawn),39.3
5,Oc1ccc2ccccc2c1C(Nc1nc2ccccc2s1)c1cn(-c2ccccc2)nc1-c1cccc(Cl)c1 (stereo not drawn),20.4
6,O=[N+]([O-])c1cccc(-c2nn(-c3ccccc3)cc2C(Nc2nc3ccc(Cl)cc3s2)c2c(O)ccc3ccccc23)c1 (stereo not drawn),42.5
7,Cc1ccc(-c2nn(-c3ccccc3)cc2C(Nc2nc3ccccc3s2)c2c(O)ccc3ccccc23)cc1 (stereo not drawn),57.4
8,Oc1ccc2ccccc2c1C(Nc1nc2ccc(Cl)cc2s1)c1cn(-c2ccccc2)nc1-c1ccc(F)cc1 (stereo not drawn),32.1
9,Oc1ccc2ccccc2c1C(Nc1nc2ccc(Cl)cc2s1)c1cn(-c2ccccc2)nc1-c1ccc(Cl)cc1 (stereo not drawn),54.1
10,Cc1cccc(-c2nn(-c3ccccc3)cc2C(Nc2nc3ccccc3s2)c2c(O)ccc3ccccc23)c1 (stereo not drawn),18.5
11,COc1cccc(-c2nn(-c3ccccc3)cc2C(Nc2nc3ccc(Cl)cc3s2)c2c(O)ccc3ccccc23)c1 (stereo not drawn),49.8
12,Oc1ccc2ccccc2c1C(Nc1nc2ccccc2s1)c1cn(-c2ccccc2)nc1-c1ccc(I)cc1 (stereo not drawn),23.1
13,Oc1ccc2ccccc2c1C(Nc1nc2ccc(Cl)cc2s1)c1cn(-c2ccccc2)nc1-c1cccc(Cl)c1 (stereo not drawn),33.3
14,Oc1ccc2ccccc2c1C(Nc1nc2ccccc2s1)c1cn(-c2ccccc2)nc1-c1ccccc1 (stereo not drawn),36.2
15,COc1ccc2nc(NC(c3cn(-c4ccccc4)nc3-c3cccc([N+](=O)[O-])c3)c3c(O)ccc4ccccc34)sc2c1 (stereo not drawn),52.1
16,Cc1cc2nc(NC(c3cn(-c4ccccc4)nc3-c3ccc([N+](=O)[O-])cc3)c3c(O)ccc4ccccc34)sc2cc1C (stereo not drawn),41.9
17,Oc1ccc2ccccc2c1C(Nc1nc2ccc(Cl)cc2s1)c1cn(-c2ccccc2)nc1-c1ccc(I)cc1 (stereo not drawn),29
18,Cc1ccc2nc(NC(c3cn(-c4ccccc4)nc3-c3cccc([N+](=O)[O-])c3)c3c(O)ccc4ccccc34)sc2c1 (stereo not drawn),57.4
19,Cc1ccc2nc(NC(c3cn(-c4ccccc4)nc3-c3ccc([N+](=O)[O-])cc3)c3c(O)ccc4ccccc34)sc2c1 (stereo not drawn),29
20,Cc1ccc(-c2nn(-c3ccccc3)cc2C(Nc2nc3cc(C)c(C)cc3s2)c2c(O)ccc3ccccc23)cc1 (stereo not drawn),31.2
21,COc1cccc(-c2nn(-c3ccccc3)cc2C(Nc2nc3ccccc3s2)c2c(O)ccc3ccccc23)c1 (stereo not drawn),24.8
22,O=[N+]([O-])c1cccc(-c2nn(-c3ccccc3)cc2C(Nc2nc3ccccc3s2)c2c(O)ccc3ccccc23)c1 (stereo not drawn),32
23,COc1cccc(-c2nn(-c3ccccc3)cc2C(Nc2nc3ccc(OC)cc3s2)c2c(O)ccc3ccccc23)c1 (stereo not drawn),88.1
24,COc1ccc2nc(NC(c3cn(-c4ccccc4)nc3-c3ccccc3)c3c(O)ccc4ccccc34)sc2c1 (stereo not drawn),44.6
25,Oc1ccc2ccccc2c1C(Nc1nc2ccc(Cl)cc2s1)c1cn(-c2ccccc2)nc1-c1ccccc1 (stereo not drawn),51.1
26,O=[N+]([O-])c1ccc(-c2nn(-c3ccccc3)cc2C(Nc2nc3ccccc3s2)c2c(O)ccc3ccccc23)cc1 (stereo not drawn),41.2
27,Cc1ccc2nc(NC(c3cn(-c4ccccc4)nc3-c3cccc(Cl)c3)c3c(O)ccc4ccccc34)sc2c1 (stereo not drawn),45.4

# Tested on: MCF7
# Assay: Antiproliferative activity against human MCF7 cells after 48 hrs by MTT assay
# Assay type: functional, cell-based
# Settings: MCF7, 48 h
row,Compound,IC50 [µM]
1,COc1ccc(-c2nn(-c3ccccc3)cc2C(Nc2nc3ccc(OC)cc3s2)c2c(O)ccc3ccccc23)cc1 (stereo not drawn),41.8
2,O=[N+]([O-])c1ccc(-c2nn(-c3ccccc3)cc2C(Nc2nc3ccc(Cl)cc3s2)c2c(O)ccc3ccccc23)cc1 (stereo not drawn),38.6
3,COc1ccc(-c2nn(-c3ccccc3)cc2C(Nc2nc3ccccc3s2)c2c(O)ccc3ccccc23)cc1 (stereo not drawn),17.5
4,COc1ccc2nc(NC(c3cn(-c4ccccc4)nc3-c3cccc(I)c3)c3c(O)ccc4ccccc34)sc2c1 (stereo not drawn),20
5,Oc1ccc2ccccc2c1C(Nc1nc2ccccc2s1)c1cn(-c2ccccc2)nc1-c1cccc(Cl)c1 (stereo not drawn),20.7
6,O=[N+]([O-])c1cccc(-c2nn(-c3ccccc3)cc2C(Nc2nc3ccc(Cl)cc3s2)c2c(O)ccc3ccccc23)c1 (stereo not drawn),19.7
7,Cc1ccc(-c2nn(-c3ccccc3)cc2C(Nc2nc3ccccc3s2)c2c(O)ccc3ccccc23)cc1 (stereo not drawn),13.1
8,Oc1ccc2ccccc2c1C(Nc1nc2ccc(Cl)cc2s1)c1cn(-c2ccccc2)nc1-c1ccc(F)cc1 (stereo not drawn),21.6
9,Oc1ccc2ccccc2c1C(Nc1nc2ccc(Cl)cc2s1)c1cn(-c2ccccc2)nc1-c1ccc(Cl)cc1 (stereo not drawn),27.5
10,Cc1cccc(-c2nn(-c3ccccc3)cc2C(Nc2nc3ccccc3s2)c2c(O)ccc3ccccc23)c1 (stereo not drawn),17.3
11,COc1cccc(-c2nn(-c3ccccc3)cc2C(Nc2nc3ccc(Cl)cc3s2)c2c(O)ccc3ccccc23)c1 (stereo not drawn),36
12,Oc1ccc2ccccc2c1C(Nc1nc2ccccc2s1)c1cn(-c2ccccc2)nc1-c1ccc(I)cc1 (stereo not drawn),18.9
13,Oc1ccc2ccccc2c1C(Nc1nc2ccc(Cl)cc2s1)c1cn(-c2ccccc2)nc1-c1cccc(Cl)c1 (stereo not drawn),17.5
14,Oc1ccc2ccccc2c1C(Nc1nc2ccccc2s1)c1cn(-c2ccccc2)nc1-c1ccccc1 (stereo not drawn),48.9
15,COc1ccc2nc(NC(c3cn(-c4ccccc4)nc3-c3cccc([N+](=O)[O-])c3)c3c(O)ccc4ccccc34)sc2c1 (stereo not drawn),26.8
16,Cc1cc2nc(NC(c3cn(-c4ccccc4)nc3-c3ccc([N+](=O)[O-])cc3)c3c(O)ccc4ccccc34)sc2cc1C (stereo not drawn),41.1
17,Oc1ccc2ccccc2c1C(Nc1nc2ccc(Cl)cc2s1)c1cn(-c2ccccc2)nc1-c1ccc(I)cc1 (stereo not drawn),65
18,Cc1ccc2nc(NC(c3cn(-c4ccccc4)nc3-c3cccc([N+](=O)[O-])c3)c3c(O)ccc4ccccc34)sc2c1 (stereo not drawn),38.4
19,Cc1ccc2nc(NC(c3cn(-c4ccccc4)nc3-c3ccc([N+](=O)[O-])cc3)c3c(O)ccc4ccccc34)sc2c1 (stereo not drawn),20.7
20,Cc1ccc(-c2nn(-c3ccccc3)cc2C(Nc2nc3cc(C)c(C)cc3s2)c2c(O)ccc3ccccc23)cc1 (stereo not drawn),22.4
21,COc1cccc(-c2nn(-c3ccccc3)cc2C(Nc2nc3ccccc3s2)c2c(O)ccc3ccccc23)c1 (stereo not drawn),16.9
22,O=[N+]([O-])c1cccc(-c2nn(-c3ccccc3)cc2C(Nc2nc3ccccc3s2)c2c(O)ccc3ccccc23)c1 (stereo not drawn),43.9
23,COc1cccc(-c2nn(-c3ccccc3)cc2C(Nc2nc3ccc(OC)cc3s2)c2c(O)ccc3ccccc23)c1 (stereo not drawn),62.6
24,COc1ccc2nc(NC(c3cn(-c4ccccc4)nc3-c3ccccc3)c3c(O)ccc4ccccc34)sc2c1 (stereo not drawn),40.8
25,Oc1ccc2ccccc2c1C(Nc1nc2ccc(Cl)cc2s1)c1cn(-c2ccccc2)nc1-c1ccccc1 (stereo not drawn),36.3
26,O=[N+]([O-])c1ccc(-c2nn(-c3ccccc3)cc2C(Nc2nc3ccccc3s2)c2c(O)ccc3ccccc23)cc1 (stereo not drawn),14.7
27,CN1CCN(c2ccc3nc(-c4ccc5nc(-c6ccc(O)cc6)[nH]c5c4)[nH]c3c2)CC1,48.1
28,Cc1ccc2nc(NC(c3cn(-c4ccccc4)nc3-c3cccc(Cl)c3)c3c(O)ccc4ccccc34)sc2c1 (stereo not drawn),49.7

# Tested on: HeLa
# Assay: Antiproliferative activity against human HeLa cells after 48 hrs by MTT assay
# Assay type: functional, cell-based
# Settings: not given
row,Compound,IC50 [µM]
1,COc1ccc(-c2nn(-c3ccccc3)cc2C(Nc2nc3ccc(OC)cc3s2)c2c(O)ccc3ccccc23)cc1 (stereo not drawn),9.24
2,O=[N+]([O-])c1ccc(-c2nn(-c3ccccc3)cc2C(Nc2nc3ccc(Cl)cc3s2)c2c(O)ccc3ccccc23)cc1 (stereo not drawn),13.4
3,COc1ccc(-c2nn(-c3ccccc3)cc2C(Nc2nc3ccccc3s2)c2c(O)ccc3ccccc23)cc1 (stereo not drawn),9.34
4,COc1ccc2nc(NC(c3cn(-c4ccccc4)nc3-c3cccc(I)c3)c3c(O)ccc4ccccc34)sc2c1 (stereo not drawn),6.24
5,Oc1ccc2ccccc2c1C(Nc1nc2ccccc2s1)c1cn(-c2ccccc2)nc1-c1cccc(Cl)c1 (stereo not drawn),6.83
6,O=[N+]([O-])c1cccc(-c2nn(-c3ccccc3)cc2C(Nc2nc3ccc(Cl)cc3s2)c2c(O)ccc3ccccc23)c1 (stereo not drawn),15.5
7,Cc1ccc(-c2nn(-c3ccccc3)cc2C(Nc2nc3ccccc3s2)c2c(O)ccc3ccccc23)cc1 (stereo not drawn),8.05
8,Oc1ccc2ccccc2c1C(Nc1nc2ccc(Cl)cc2s1)c1cn(-c2ccccc2)nc1-c1ccc(F)cc1 (stereo not drawn),30.1
9,Oc1ccc2ccccc2c1C(Nc1nc2ccc(Cl)cc2s1)c1cn(-c2ccccc2)nc1-c1ccc(Cl)cc1 (stereo not drawn),36.8
10,Cc1cccc(-c2nn(-c3ccccc3)cc2C(Nc2nc3ccccc3s2)c2c(O)ccc3ccccc23)c1 (stereo not drawn),7.02
11,COc1cccc(-c2nn(-c3ccccc3)cc2C(Nc2nc3ccc(Cl)cc3s2)c2c(O)ccc3ccccc23)c1 (stereo not drawn),30
12,Oc1ccc2ccccc2c1C(Nc1nc2ccccc2s1)c1cn(-c2ccccc2)nc1-c1ccc(I)cc1 (stereo not drawn),6.59
13,Oc1ccc2ccccc2c1C(Nc1nc2ccc(Cl)cc2s1)c1cn(-c2ccccc2)nc1-c1cccc(Cl)c1 (stereo not drawn),18.3
14,Oc1ccc2ccccc2c1C(Nc1nc2ccccc2s1)c1cn(-c2ccccc2)nc1-c1ccccc1 (stereo not drawn),17.3
15,COc1ccc2nc(NC(c3cn(-c4ccccc4)nc3-c3cccc([N+](=O)[O-])c3)c3c(O)ccc4ccccc34)sc2c1 (stereo not drawn),6.14
16,Cc1cc2nc(NC(c3cn(-c4ccccc4)nc3-c3ccc([N+](=O)[O-])cc3)c3c(O)ccc4ccccc34)sc2cc1C (stereo not drawn),14.7
17,Oc1ccc2ccccc2c1C(Nc1nc2ccc(Cl)cc2s1)c1cn(-c2ccccc2)nc1-c1ccc(I)cc1 (stereo not drawn),12.1
18,Cc1ccc2nc(NC(c3cn(-c4ccccc4)nc3-c3cccc([N+](=O)[O-])c3)c3c(O)ccc4ccccc34)sc2c1 (stereo not drawn),7.36
19,Cc1ccc2nc(NC(c3cn(-c4ccccc4)nc3-c3ccc([N+](=O)[O-])cc3)c3c(O)ccc4ccccc34)sc2c1 (stereo not drawn),7.04
20,Cc1ccc(-c2nn(-c3ccccc3)cc2C(Nc2nc3cc(C)c(C)cc3s2)c2c(O)ccc3ccccc23)cc1 (stereo not drawn),17.8
21,COc1cccc(-c2nn(-c3ccccc3)cc2C(Nc2nc3ccccc3s2)c2c(O)ccc3ccccc23)c1 (stereo not drawn),14.9
22,O=[N+]([O-])c1cccc(-c2nn(-c3ccccc3)cc2C(Nc2nc3ccccc3s2)c2c(O)ccc3ccccc23)c1 (stereo not drawn),8.22
23,COc1cccc(-c2nn(-c3ccccc3)cc2C(Nc2nc3ccc(OC)cc3s2)c2c(O)ccc3ccccc23)c1 (stereo not drawn),10.5
24,COc1ccc2nc(NC(c3cn(-c4ccccc4)nc3-c3ccccc3)c3c(O)ccc4ccccc34)sc2c1 (stereo not drawn),8.29
25,Oc1ccc2ccccc2c1C(Nc1nc2ccc(Cl)cc2s1)c1cn(-c2ccccc2)nc1-c1ccccc1 (stereo not drawn),12.5
26,O=[N+]([O-])c1ccc(-c2nn(-c3ccccc3)cc2C(Nc2nc3ccccc3s2)c2c(O)ccc3ccccc23)cc1 (stereo not drawn),6.81
27,CN1CCN(c2ccc3nc(-c4ccc5nc(-c6ccc(O)cc6)[nH]c5c4)[nH]c3c2)CC1,23.5
28,Cc1ccc2nc(NC(c3cn(-c4ccccc4)nc3-c3cccc(Cl)c3)c3c(O)ccc4ccccc34)sc2c1 (stereo not drawn),9.43
